In the supplement of paper PMC12317010:
Structures can show the parent of a compound that is named as a salt.

Experiment: collision cross section in nitrogen (drift tube, single-field); higher = larger gas-phase ion size
[1] = ion type: [M+H], ion source: APCI, ion mode: Positive
[2] = ion type: [M+H], ion source: ESI, ion mode: Positive
[3] = ion type: [M+Na], ion source: ESI, ion mode: Positive
[4] = ion type: [M-H], ion source: ESI, ion mode: Negative
[5] = ion type: [M+], ion source: APCI, ion mode: Positive
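Also: chemical standards at 10 µM analysed by drift tube IMS-QTOF MS in about 3.95 torr nitrogen, mean of duplicate injections differing ≤1%, mass error below 10 ppm.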

Row | Compound | collision cross section in nitrogen [1] [Å²] | collision cross section in nitrogen [2] [Å²] | collision cross section in nitrogen [3] [Å²] | collision cross section in nitrogen [4] [Å²] | collision cross section in nitrogen [5] [Å²]
1 | CCN(CC)C(=O)C(C)Oc1cccc2ccccc12 (configuration not stated) [Napropamide] | 163.8 | 164.2 | 172 |  | 
2 | c1ccc2cc3c(cc2c1)-c1cccc2cccc-3c12 [Benzo[k]fluoranthene] |  |  |  |  | 151.3
3 | C=COCCOCCOCCOC=C [3,6,9,12-Tetraoxatetradeca-1,13-diene] |  |  | 143.4 |  | 
4 | CC1(C)O[C@@H]2C[C@H]3[C@@H]4C[C@H](F)C5=CC(=O)CC[C@]5(C)[C@H]4[C@@H](O)C[C@]3(C)[C@]2(C(=O)CO)O1 [Flurandrenolide] |  | 186.9 |  | 201.8 | 
5 | COCC(=O)N(c1c(C)cccc1C)C(C)C(=O)OC (configuration not stated) [Metalaxyl] | 160.5 | 160.8 | 169.4 |  | 
6 | CC1(c2ccc(Oc3ccccc3)cc2)OC(=O)N(Nc2ccccc2)C1=O (configuration not stated) [Famoxadone] |  |  | 210.6 | 195.7 | 
7 | CC(C)C(C(=O)OC(C#N)c1cccc(Oc2ccccc2)c1)c1ccc(OC(F)F)cc1 (configuration not stated) [Flucythrinate] | 214.8 |  | 208.3 |  | 
8 | COP(N)(=S)Oc1ccccc1C(=O)OC(C)C (configuration not stated) [Isocarbophos] |  |  | 168.6 |  | 
9 | O=C(O[C@@H]1Cc2c(O)cc(O)cc2O[C@@H]1c1cc(O)c(O)c(O)c1)c1cc(O)c(O)c(O)c1 [(-)-Epigallocatechin gallate] |  |  | 212.4 |  | 
10 | CC(O)COC(C)COC(C)CO (configuration not stated) [Tripropylene glycol] |  |  | 144.9 |  | 
11 | CCCCN(CCCC)SN(C)C(=O)Oc1cccc2c1OC(C)(C)C2 [Carbosulfan] | 188.3 | 188.3 | 204.7 |  | 
12 | CC(C)CCCCCCOC(=O)C1CCCCC1C(=O)OCCCCCCC(C)C (configuration not stated) [Diisononyl cyclohexane-1,2-dicarboxylate] |  |  | 220.8 |  | 
13 | Oc1c(Cl)cc(Cl)c(Cl)c1Cc1c(O)c(Cl)cc(Cl)c1Cl [Hexachlorophene] |  |  |  | 174.4 | 
14 | Nc1ccc(Cl)cc1C(=O)c1ccccc1 [2-Amino-5-chlorobenzophenone] |  |  |  | 150.4 | 
15 | Nc1ccccc1[N+](=O)[O-] [2-Nitrobenzenamine] |  |  |  | 121.6 | 
16 | C=C(C)C(=O)NCCCN(C)C [N-(3-Dimethylaminopropyl)methacrylamide] | 135.8 | 137.1 |  |  | 
17 | COC(=O)C1(O)c2ccccc2-c2ccccc21 [Methyl 9-hydroxy-9H-fluorene-9-carboxylate] |  |  |  | 150.1 | 

Row | Compound | collision cross section in nitrogen [1] [Å²] | collision cross section in nitrogen [2] [Å²] | collision cross section in nitrogen [3] [Å²] | collision cross section in nitrogen [4] [Å²] | collision cross section in nitrogen [5] [Å²]
18 | Fc1ccc([C@@]2(Cn3cncn3)O[C@@H]2c2ccccc2Cl)cc1 [Epoxiconazole] | 176.9 | 176.6 | 191.3 |  | 
19 | O=C1N=CC(Cl)=CC1Cl (configuration not stated) [3,5-Dichloro-2-pyridone] |  |  |  | 123.4 | 
20 | CCCC(C)(COC(N)=O)COC(=O)NC(C)C (configuration not stated) [Carisoprodol] |  |  | 172.2 |  | 
21 | CCCCN(CC)c1c([N+](=O)[O-])cc(C(F)(F)F)cc1[N+](=O)[O-] [Benfluralin] |  |  |  | 168.5 | 
22 | CC(C)(C)C(O)(CCc1ccc(Cl)cc1)Cn1cncn1 (configuration not stated) [Tebuconazole] | 167.5 | 166.8 | 172.5 |  | 
23 | O=S(=O)(O)C(F)(F)C(F)(F)C(F)(F)C(F)(F)F [Potassium perfluorobutanesulfonate] |  |  |  | 134.2 | 
24 | CC(c1ccc(O)cc1)(c1ccc(O)cc1)c1ccc(O)cc1 [4,4',4''-Ethane-1,1,1-triyltriphenol] |  |  |  | 184.3 | 
25 | O=C(O)C1(c2ccc3c(c2)OC[C@H](Cc2ccc(-c4ccccc4)cc2)[C@H]3O)CCCC1 |  |  | 202.9 |  | 
26 | CCON=C(CC)C1=C(O)CC(c2c(C)cc(C)cc2C)CC1=O (configuration not stated) [Tralkoxydim] | 187.3 | 187 | 196.2 | 188.9 | 
27 | NS(=O)(=O)O [Sulfamic acid] |  |  |  | 112 | 
28 | CCCN(CC1CC1)c1c([N+](=O)[O-])cc(C(F)(F)F)cc1[N+](=O)[O-] [Profluralin] |  |  |  | 172.2 | 
29 | Nc1c(Cl)c(Cl)c(Cl)c(Cl)c1Cl [Pentachloroaniline] |  |  |  | 138.4 | 
30 | O=C(Nc1ccccc1)Nc1cnns1 [Thidiazuron] | 148.4 | 147.9 |  |  | 
31 | CCc1nc(C)c[nH]1 [2-Ethyl-4-methyl-1H-imidazole] | 120.3 | 121.2 |  |  | 
32 | COC1=CC(=O)C[C@@H](C)[C@]12Oc1c(Cl)c(OC)cc(OC)c1C2=O [Griseofulvin] | 182 | 181.6 | 189.6 |  | 
33 | C[C@H]1CCCC(=O)CCC/C=C/c2cc(O)cc(O)c2C(=O)O1 [Zearalenone] |  |  |  | 177.5 | 

Results, then the compound that gave them:

Row | collision cross section in nitrogen [1] [Å²] | collision cross section in nitrogen [2] [Å²] | collision cross section in nitrogen [3] [Å²] | collision cross section in nitrogen [4] [Å²] | collision cross section in nitrogen [5] [Å²] | Compound
34 | 135.8 | 136.5 |  | 138.7 |  | CCC(=O)Nc1cccc(N)c1 [N-(3-Aminophenyl)propanamide]
35 | 230.5 | 230 | 232.8 | 223.1 |  | COc1cccc2c1C(=O)c1c(O)c3c(c(O)c1C2=O)C[C@@](O)(C(=O)CO)C[C@@H]3O[C@H]1C[C@H](N)[C@H](O)[C@H](C)O1 [Doxorubicin hydrochloride]
36 |  |  |  | 162.8 |  | CC1(C)NC(=O)N(c2ccc([N+](=O)[O-])c(C(F)(F)F)c2)C1=O [Nilutamide]
37 |  | 205.5 | 219.6 | 218.6 |  | CCN(CC)c1ccc2cc(-c3nc4cc(S(N)(=O)=O)ccc4o3)c(=O)oc2c1
38 | 167.5 |  |  | 171.5 |  | O=C1c2ccccc2C(=O)C1c1nc2ccccc2c(Br)c1O [C.I. Disperse Yellow 64]
39 |  |  |  | 169.2 |  | Nc1c(S(=O)(=O)O)cc(Br)c2c1C(=O)c1ccccc1C2=O [Bromamine acid sodium salt]
40 |  |  |  | 140.5 |  | Cc1cc(C)c(C(=O)O)c(C)c1 [2,4,6-Trimethylbenzoic acid]
41 | 199.9 | 198.9 |  |  |  | CN(C)c1ccc(C(c2ccccc2)c2ccc(N(C)C)cc2)cc1 [Leucomalachite green]
42 | 141.7 | 141.3 | 160.6 |  | 138 | CC1=CP(=O)(c2ccccc2)CC1 (configuration not stated) [2,3-Dihydro-4-methyl-1-phenyl-1H-phosphole 1-oxide]
43 | 224.8 | 224.1 | 232.1 | 226.6 |  | CCc1c(C(=O)NN2CCCCC2)nn(-c2ccc(Cl)cc2Cl)c1-c1ccc(Br)cc1 [Surinabant]
44 | 150.5 | 150.1 | 161.1 |  |  | NC(=O)N1c2ccccc2C=Cc2ccccc21 [Carbamazepine]
45 | 156.4 | 156.8 |  |  |  | Clc1ccccc1CN1CCc2sccc2C1 [Ticlopidine hydrochloride]
46 | 163.3 | 163.7 | 172.5 |  |  | CC(CN1c2ccccc2Sc2ccccc21)N(C)C (configuration not stated) [Promethazine hydrochloride]
47 |  |  | 232.5 | 245.2 |  | COc1ccc([C@@H]2CC(=O)c3c(O)cc(O[C@@H]4O[C@H](CO[C@@H]5O[C@@H](C)[C@H](O)[C@@H](O)[C@H]5O)[C@@H](O)[C@H](O)[C@H]4O)cc3O2)cc1OC [Methyl hesperidin]
48 | 182.1 | 181.9 | 195.1 |  |  | CCCCCC(C)OC(=O)COc1ccc(Cl)c2cccnc12 (configuration not stated) [Cloquintocet-mexyl]
49 |  |  | 172.2 |  |  | CC(C)COC(=O)COc1ccc(Cl)cc1Cl [2,4-D-isobutyl]
50 |  |  |  | 161.2 |  | Cc1c(C(=O)NCCO)[n+]([O-])c2ccccc2[n+]1[O-] [Olaquindox]
51 |  |  |  | 128.7 | 123.4 | CCc1ccc(O)cc1 [4-Ethylphenol]
52 | 167.1 | 167 | 178.6 | 172.5 |  | CC(=O)CC(c1ccccc1)c1c(O)c2ccccc2oc1=O (configuration not stated) [Sodium warfarin]
53 |  |  | 199.7 |  |  | COC(=O)c1ccccc1S(=O)(=O)NC(=O)Nc1nc(OC(F)F)cc(OC(F)F)n1 [Primisulfuron-methyl]
54 | 208.6 | 208.6 | 213 | 216.1 |  | CCOC(=O)CN[C@@H](C(=O)N1CC[C@H]1C(=O)NCc1ccc(/C(N)=N/O)cc1)C1CCCCC1 [Ximelagatran]
55 | 177.9 | 176.5 | 189.3 | 185.6 |  | c1ccc(CNc2ncnc3c2ncn3C2CCCCO2)cc1 (configuration not stated) [N-Benzyl-9-(tetrahydro-2H-pyran-2-yl)adenine]
56 | 175.5 | 175.4 | 183.1 | 178.1 |  | Cc1ccc(S(=O)(=O)NC(=O)NN2CCCCCC2)cc1 [Tolazamide]
57 | 238.9 |  |  |  | 238.3 | CC(=O)C(=NNc1ccc(-c2ccc(NN=C(C(C)=O)C(=O)Nc3ccc(C)cc3C)c(Cl)c2)cc1Cl)C(=O)Nc1ccc(C)cc1C [C.I. Pigment Yellow 13]
58 | 174.5 | 174.5 |  |  |  | CN(C)CCCN1c2ccccc2CCc2ccc(Cl)cc21 [Clomipramine hydrochloride]
